{"source": "patent US20220112225A1", "about": "“ANANDAMIDE COMPOUNDS” (priority 2019, published 2022)", "target": "T1, hMfsd2a (Homo sapiens, UniProt Q8NA29)", "T1 construct": "expressed in transfected cells; host or cells: HEK293", "T1 sequence (Q8NA29 1-530 isoform Q8NA29-2)": "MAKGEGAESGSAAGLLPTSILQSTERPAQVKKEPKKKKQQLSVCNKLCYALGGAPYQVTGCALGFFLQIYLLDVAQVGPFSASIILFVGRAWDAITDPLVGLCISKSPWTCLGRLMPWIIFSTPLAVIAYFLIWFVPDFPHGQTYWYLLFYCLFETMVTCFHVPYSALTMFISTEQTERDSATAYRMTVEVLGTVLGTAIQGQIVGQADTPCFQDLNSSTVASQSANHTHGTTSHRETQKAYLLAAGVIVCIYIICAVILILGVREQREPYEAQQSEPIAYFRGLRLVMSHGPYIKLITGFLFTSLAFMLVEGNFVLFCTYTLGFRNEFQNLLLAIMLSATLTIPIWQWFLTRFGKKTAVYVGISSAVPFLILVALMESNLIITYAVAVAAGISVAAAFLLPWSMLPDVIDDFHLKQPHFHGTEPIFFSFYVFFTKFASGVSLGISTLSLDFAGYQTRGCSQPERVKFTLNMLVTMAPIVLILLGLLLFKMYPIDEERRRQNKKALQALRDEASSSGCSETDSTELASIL", "test": "In vitro Mfsd2a transport, thin layer chromatography (TLC) analysis", "type": "cell-based", "settings": "transfected HEK293 cells, 50 μM test compound, 1 hour, iodine and cupric acetate stain", "protocol": "The assay was conducted in a low throughput 6-well format with HEK293 cells prepared and then transfected in duplicate wells with plasmids containing either the wildtype (WT) version of hMfsd2a, the D97A mutant version, or an empty vector as control. Uptake into the ceils was assessed by both thin-layer chromatography (TLC) and ultrahigh performance liquid chromatography hyphenated mass spectrometry.\nHEK293 cells were seeded at 6.25×10^5 per 6-well in 2 mL of DMEM with 10% FBS and 1% penicillin-streptomycin (P/S) media (Sigma) and incubated overnight at 37° C. in 5% CO2. Cells were checked for confluency the next morning. On a per well basis the following lipid mix was generated, 6 μL of Lipofectamine 2000 was added dropwise to 200 μL of OptiMEM, this was left to stand for 5 minutes at room temperature (RT). 1 μg of hMfsd2a WT, D97A or empty plasmid was prepared in 200 μL of OptiMEM as appropriate for each well; the Lipofectamine 2000 in OptiMEM solution was then added dropwise to a total volume of 400 μL (this can be scaled to support the number of wells/plates to be assayed). This transfection preparation was then incubated at RT for 20 minutes. DMEM with 10% FBS and no P/S media was warmed to 37° C., the HEK293 plate media was changed and the cells washed carefully with 1 mL of the warmed DMEM with 10% FBS no P/S media, 1.6 mL of the warmed DMEM with 10% FBS no P/S media was then added to each well. 400 μL of the transfection preparation was then added dropwise to each well as appropriate and the plate was gently swirled in a circular motion. The plate was then incubated overnight at 37° C. in 5% CO2.\nCompound Incubation and Preparation of Analysis Samples Compound stock solutions were prepared in a 12% BSA in PBS solution such that a 40 μL spike into 2 ml, of plain DMEM would yield a concentration of 50 μM of test compound (the compound treated media). Remaining compound stock solution in 12% BSA in PBS was frozen at −20° C. to allow for media stability testing. The HEK293 6-well plate was removed from the incubator and the wells gently rinsed with 1 mL of plain DMEM that had been prewarmed to 37° C. 2 mL of the compound treated media was then added to each well. A 100 μL sample of the compound treated media was sampled to represent a T=0 h sample; 5 μL of this sample (the remainder was reserved and frozen in case of re-analysis being required) was diluted with 45 μL of DMEM and crashed with 50 μL MeCN in a 96-well plate which was sealed and kept on ice. The HEK293 6-well plate was then incubated at 37° C. in 5% CO2 for 1 hour, the plate was then removed from the incubator and a 100 μL sample of media taken from each well to represent a T=1 h sample; 5 μL of this sample (the remainder was reserved and frozen in case of re-analysis being required) was diluted with 45 μL of DMEM and crashed with 50 μL MeCN into the 96-well plate which was re-sealed and stored at −20° C. The remaining media was then removed from the HEK293 6-well plate, the wells were gently rinsed twice with 1 mL of 0.5% BSA in DMEM, the media was then removed and the 6-well plate allowed to dry completely at RT. 1 ml of 3:2 Hexane:Isopropanol (HIP) was added to each well in a fume cupboard and the plate allowed to stand for 30 minutes at RT without shaking. The HIP solution was then transferred to 2 mL Eppendorf tubes, and the process was repeated with a second 1 mL aliquot of HIP and the two aliquots combined. The HIP samples were then dried down under a nitrogen stream.\nSilica gel plates were prepared in a fume cupboard by initially drawing a line 1.5 cm from the bottom edge of the plate and then drawing sample lanes with a width of 1 cm and a separation of 0.5 cm between lanes. TLC buffer for phospholipids was prepared as a 31:62:7 solvent mix of Methanol:Chloroform:Ammonium Hydroxide. Plates were pre-run in a humid chamber containing 200 mL of the TLC buffer until the solvent front was 1.5 cm from the plate edge, the plate was then allowed to dry. […]", "data": [{"substance": "2-(5Z,8Z,11Z,14Z)-icosa-5,8,11,14-tetraenamidoethyl (trimethylammonio) ethylphosphate [Compound 3]", "values": [{"measurement": "Transport via Mfsd2a: TLC band intensity in WT cells compared with D97A mutant Mfsd2a and/or empty vector cells", "result": "transported via Mfsd2a"}]}]}
